Data as given in US20160151458A1, “Use Of Unacylated Ghrelin, Fragments And Analogs Thereof As Antioxidant” (ALIZE PHARMA SAS, priority 2013, published 2016).

Experiments:
[1] = tested on: unilateral hind limb ischemia in C57BL/6J mice (ischemic gastrocnemius muscle); experiment: Murine hind-limb ischemia model; format: in vivo; settings: for Pax-7/MyoD+ cells in ischemic muscles: FIG. 2A
Procedure: (§1) Male C57BL/6J mice (Charles River Lab., Wilmington, Mass., USA) were anesthetized and unilateral hind limb ischemia was induced as described^42. The normo-perfused contralateral limb of each mouse was used as an internal control. After hind-limb ischemia, animals (18 mice per group) were treated by intra-peritoneal injection daily from 0 to day 21 with either saline, AG (100 μg/kg) or UAG (100 μg/kg). In selected experiments, mice received intramuscular injections of pre-miR oligonucleotides (5 mice/group). To induce toxic damage, 100 μl of 1% barium chloride (BaCl2, Sigma Aldrich) was injected unilaterally into the hind limb (9 mice). Mice were treated according to European Guidelines and policies as approved by the University of Turin Ethical Committee.
Semiquantitative estimation (by repeated measures analyzed with ANOVA and Newman-Keuls Multiple Comparison test) of foot damage was performed serially using the following classification: 3=dragging of foot (foot necrosis), 2=no dragging but no plantar flexion (foot damage), 1=plantar flexion but no toe flexion (toe damage), and 0=flexing the toes to resist gentle traction on the tail (no damage)^43.
(§2) Gastrocnemius muscle sections from ischemic or normo-perfused limbs were stained with hematoxylin and eosin for histological analysis. The proportion of fibers with central nuclei (regenerating fibers) was measured by MetaMorph software (Life Sciences Research Imaging Systems) in the injured area and the cross-sectional areas of the fibers in the injured and non-injured areas. For IF analysis, muscle sections were processed as described previously^44. The number of cells expressing the indicated markers or CD31 positive vessels was evaluated as previously described^34.
(§3) Intracellular ROS production was evaluated using DCF-DA (5-(and-6)-carboxy-2′,7′-dichlorofluorescein diacetate, […] final concentration) (Molecular Probe, Invitrogen) assay as previously described^23. The formation of TBARS was determined in muscles using the OXI-TEK kit (ZeptoMetrix Corp.) and a luminescence spectrometer (Bio-Rad Laboratories, Hercules, Calif.) with excitation set at 530 nm, emission at 550 nm to measure in-vivo oxidative stress levels^33.

[2] = tested on: satellite cells (SCs) from ischemic muscles; experiment: SCs recovered from ischemic muscles of treated mice (ex vivo analysis); format: in vivo, C57BL/6J mice
Procedure: as §1
(§4) SCs were isolated from gastrocnemius muscles of C57BL/6J wild type mice subjected to ischemia or C57BL/6J mice lacking the GHSR1a and ghrelin genes (10 mice, kind gift of Professor M. Tschöp)^39. To obtain SCs, muscle samples were subjected to enzymatic digestion as described^45. In selected experiments, SCs were recovered from normo-perfused muscles and subjected to in-vitro ischemia in presence of saline, AG (1 μmol/L) or UAG (1 μmol/L). In-vitro ischemia was induced by incubating cells in DMEM+2% FCS at 5% CO2/95% N2 humidified atmosphere, yielding 1% O2 concentrations for 24 h^18. The in-vitro ischemia was also performed in the presence of SB202190 (1 μmol/L).
(§5) Cells were lysed and protein detection was obtained as previously described^47. Cells were lysed (50 mmol/L Tris HCl [pH 8.3], 1% Triton X-100, 10 mmol/L PMSF, 100 U/ml aprotinin, 10 μmol/L leupeptin) and protein concentrations were obtained as previously described^47. […] Densitometric analysis was used to calculate the differences in the fold induction of protein levels and normalized to tubulin, a actin or p38MAPK content. Values are reported as relative amount
as §3
(§6) Total RNA was isolated using TRIzol reagent (Invitrogen) from SCs recovered from muscles of treated animals or from SCs subjected to in-vitro ischemia. miR-221/222 expression was evaluated by qRT-PCR as previously described^48. Loss-of-function experiments were performed in SCs transfected for 48 h with anti-miRNA negative control, anti-miR-221/222 antagonists (Applied Biosystem, Foxter Cyto CA, USA), according to the manufacturer's instructions^48.

[3] = tested on: SCs transfected with SOD-2 siRNA; experiment: In-vitro ischemia of SCs silenced for SOD-2 by siRNA; format: cell-based, C57BL/6J mice
Procedure: as §4
(§7) SC cell-cycle progression was evaluated by evaluating the percentage of PCNA-positive cells or by FACS analysis as previously described^46. The percentage of cells in each cell cycle phase was determined by ModFit LT software (Verity Software House. Inc, topsham, ME, USA). Celss proliferation was also assayed by evaluating the percentage of PCNA-positive cells by FACS analysis.
as §5, §3, §6
To obtain SOD-2 inactivation, SCs were transiently transfected with siRNA for SOD-2 or with duplex siRNAs (Qiagen, Valencia, Calif., USA) as previously described^44. Transfection was performed according to the manufacturer's instructions. Whole cell extracts were processed 48 h after transfection. Cell viability was evaluated at the end of each experiment.

primary SCs = experiment: In-vitro ischemia of primary SCs from normo-perfused muscles; format: cell-based, C57BL/6J mice; settings: 1 μmol/L, 1% O2 24 h
Procedure: as §4, §7, §5, §3, §6

GHSR-1a = GHSR-1a (Homo sapiens, UniProt Q92847); settings: at physiological concentrations; cited from earlier work
Chain of GHSR-1a (Q92847 whole entry): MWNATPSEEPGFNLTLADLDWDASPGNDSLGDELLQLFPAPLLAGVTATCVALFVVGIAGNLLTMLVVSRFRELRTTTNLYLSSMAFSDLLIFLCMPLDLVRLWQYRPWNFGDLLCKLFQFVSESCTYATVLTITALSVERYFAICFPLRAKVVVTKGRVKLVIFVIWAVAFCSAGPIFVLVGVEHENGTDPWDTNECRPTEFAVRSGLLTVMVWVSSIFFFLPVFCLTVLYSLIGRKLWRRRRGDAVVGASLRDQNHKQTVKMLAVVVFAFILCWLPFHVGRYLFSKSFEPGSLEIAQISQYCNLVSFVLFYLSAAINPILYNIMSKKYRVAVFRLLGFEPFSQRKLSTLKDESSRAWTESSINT

[4] = tested on: C2C12 mouse muscular cell line; experiment: ROS production (DCF-DA) in C2C12 cells under oxidative stress; format: cell-based; settings: 1 μmol/L; stress by hypoxia (1% O2), AGEs, hyperglycemia (25 mM) or H2O2; FIG. 8
Procedure: Kinetic analysis of ROS production was evaluated by using DCF-DA (5-(and-6)-carboxy-2′,7′-dichlorofluorescein diacetate, 0.5 μmol/L final concentration) (Molecular Probe, Invitrogen) assay. C2C12 cells were cultured with 400 μg/ml Advanced Glycated End-product (AGE) or 25 mM glucose (high glucose HG) for 48 h, H2O2 (100 μM) for 2 h. In parallel experiments C2C12 cells were subjected to hypoxia (DMEM+2% FCS in a 5% CO2-95% N2 humidified atmosphere, yielding to 1% O2 concentrations for 24 h). UAG (1 μmol/L) AZP 531 (1 μmol/L) or AZP-502 (1 μmol/L) was added where indicated.

[5] = tested on: SCs transfected with anti-miR-221/222; experiment: Loss-of-function: SCs transfected with anti-miR-221/222 antago-miRs; format: cell-based, mice; settings: anti-miR-221/222 transfected SCs; data not shown
Procedure: as §6

healthy volunteers = settings: administered concomitantly with ghrelin; cited from earlier work
SCs from double KO mice = experiment: In-vitro ischemia of SCs from double KO mice lacking the GHSR1a and ghrelin genes; format: cell-based, C57BL/6J mice lacking the GHSR1a and ghrelin genes
Procedure: as §4, §7, §5, §3

[6] = tested on: BaCl2-injected gastrocnemius muscles of C57BL/6J mice; experiment: Toxic muscle damage induced by 1% barium chloride (BaCl2); format: in vivo; settings: 1% BaCl2; FIG. 3E
Procedure: as §1, §2

Substance: Gly-Ser-Ser-Phe-Leu-Ser-Pro-Glu-His-Gln-Arg-Val-Gln-Gln-Arg-Lys-Glu-Ser-Lys-Lys-Pro-Pro-Ala-Lys-Leu-Gln-Pro-Arg (GSSFLSPEHQRVQQRKESKKPPAKLQPR; listed as Homo sapiens) [UAG]
- protection against ischemia-induced damage (overall in vivo effect) ([1]; 100 μg/kg i.p. daily): protect against ischemia-induced damage
- foot damage (functional score) ([1]; 100 μg/kg i.p. daily from day 0, FIG. 1A): damage was significantly higher in saline- and AG-treated groups than in the UAG-treated group
- capillary density, ischemic vs contralateral control muscles of the same animals ([1]; 100 μg/kg i.p. daily, FIG. 1B): no such differences were observed
- number of functional vessels in ischemic muscles ([1]; 100 μg/kg i.p. daily, FIG. 1B): larger number of functional vessels
- CD68-positive inflammatory cells ([1]; 100 μg/kg i.p. daily, FIG. 1E): reduced number of CD68-positive inflammatory cells
- regenerating myofibers in gastrocnemius muscles ([1]; 100 μg/kg i.p. daily, FIGS. 1C, 1D): increased number of regenerating myofibers
- myogenin-positive cells in ischemic muscles ([1]; FIGS. 2E, 2F): increased number of myogenin-positive cells
- Pax-7/MyoD+ cells in ischemic muscles ([1]; day 7): increased number of Pax-7/MyoD+ cells
- Pax-7/MyoD+ cells in ischemic muscles ([1]; day 21): scattered Pax-7/MyoD+ cells were still present
- SOD-2/Pax-7+ cells in ischemic muscle ([1]; double immunostaining, day 7, FIG. 3D): increased number of SOD-2/Pax-7+ cells
- expression of miR-221 and miR-222 in SCs (qRT-PCR) ([2]; SCs from muscles of treated mice vs controls, FIG. 6A): significantly increased
- ROS production in SCs (DCF-DA) ([2]; SCs from treated mice, FIG. 3B): ROS production was lower
- SOD-2 protein expression in SCs ([2]; SCs from treated mice, Western blot, FIG. 3C): SOD-2 protein expression higher
- phospho(p)-p38/MAPK protein level in SCs ([2]; Western blot, FIG. 2C): found to be higher
- number of isolated Pax-7/MyoD/Myf5+ SCs ([2]; ex vivo, FIGS. 2B-2D): significantly increased number of Pax-7/MyoD/Myf5+SCs
- UAG-induced miR-221/222 expression ([3]; SOD-2 knock-down, FIG. 7B): SOD-2 knock-down prevents UAG-induced miR-221/222 expression
- protection against ROS generation ([3]; SOD-2 silenced, FIG. 5B): did not protect SCs against ROS generation
- cell-cycle progression ([3]; SOD-2 silenced, FIG. 5C): the cells did not undergo cell-cycle progression
- p38/MAPK phosphorylation ([3]; SOD-2 silenced, FIG. 5D): did not induce p38/MAPK phosphorylation
- PCNA expression (primary SCs; FACS, FIG. 4D): increased PCNA expression
- number of cells in S phase (primary SCs; FACS, FIG. 4E): increased
- pp38/MAPK level (primary SCs; FIG. 4C): increased levels of pp38/MAPK
- ROS production (DCF-DA) (primary SCs; FIG. 4F): ROS production was decreased
- SOD-2 expression (primary SCs; FIG. 4G): SOD-2 expression increased
- expression of Pax-7, MyoD and myogenin (primary SCs; FIGS. 4A, 4B): only UAG challenge induced expression
- binding to GHSR-1a (GHSR-1a): fails to bind
- protection against oxidative stress (ROS production) [4]: have a protective effect on C2C12 cells against oxidative stress
- cell-cycle entry and expression of SOD-2, Pax-7, MyoD, myogenin [5]: no longer had any effect
- p-p38/MAPK levels [5]: p-p38/MAPK levels were reduced
- effect on the hyperglycemic effects of ghrelin (healthy volunteers): prevent the hyperglycemic effects of ghrelin
- SC cell-cycle progression (SCs from double KO mice; FIG. 5G): only UAG promoted SC cell-cycle progression
- SOD-2 expression (SCs from double KO mice; FIG. 5I): induced SOD-2 expression
- protection from ROS generation (SCs from double KO mice; FIG. 5J): protected SCs from ROS generation
- p-p38/MAPK, Pax-7, MyoD, Myf5 and myogenin expression (SCs from double KO mice; FIGS. 5H, 5I): induced p-p38/MAPK, Pax-7, MyoD, Myf5 and myogenin expression
- regeneration of skeletal muscle after ROS-independent toxic damage [6]: regeneration of skeletal muscle was no longer observed
